Results reported in ChEMBL document CHEMBL4428082, “Aligning Potency and Pharmacokinetic Properties for Pyridine-Based NCINIs” (ACS Med Chem Lett, 2016).
Values after ≈ are worked out from the molar mass of the structure shown.

Key:
[1] = Inhibition of HIV NL4.3 integrase N124/T125 double mutant assessed as reduction in viral replication by luciferase reporter gene assay; set-up: species or system Human immunodeficiency virus
[2] = Inhibition of HIV NL4.3 integrase T124/T125 double mutant assessed as reduction in viral replication by luciferase reporter gene assay; set-up: species or system Human immunodeficiency virus
[3] = tested on: Human immunodeficiency virus; assay: Ratio of EC50 for HIV1 NL4.3 integrase N124/T125 double mutant in presence of human serum to EC50 for HIV1 NL4.3 integrase N124/T125 double mutant in absence of human serum
[4] = Clearance in rat relative to hepatic blood flow; assay type: ADME; conditions: in vivo
[5] = Half life in human liver microsomes; assay type: ADME, Microsome
[6] = Solubility of the compound at pH 6.8; assay type: physicochemical; conditions: buffer
[7] = molecular target: Cytochrome P450 2C9 (Homo sapiens, UniProt P11712); assay: Inhibition of CYP2C9 (unknown origin); assay type: ADME
[8] = Clearance in monkey hepatocytes relative to hepatic blood flow; assay type: ADME, cell-based, Macaca mulatta, Hepatocyte; conditions: rhesus monkey, read-out: CLH
[9] = Total drug excretion in rat bile assessed as acyl glucuronide of parent compound at 3 hrs; assay type: ADME, tissue-based; conditions: in vivo
[10] = Inhibition of HIV NL4.3 integrase A124/T125 double mutant infected in PBMC assessed as reduction in viral replication by p24 ELISA; conditions: Human immunodeficiency virus 1, NL4.3
[11] = Half life in bile duct cannulated rat; assay type: ADME; conditions: in vivo
[12] = molecular target: Cytochrome P450 2C19 (Homo sapiens, UniProt P33261); assay: Inhibition of CYP2C19 (unknown origin); assay type: ADME
[13] = Clearance in dog hepatocytes relative to hepatic blood flow; assay type: ADME, cell-based, Canis lupus familiaris, Hepatocyte; conditions: read-out: CLH
[14] = Volume of distribution at steady state in rat; assay type: ADME; conditions: in vivo, read-out: Vdss
[15] = Clearance in iv dosed rat relative to hepatic blood flow; assay type: ADME, organism-based; conditions: in vivo
[16] = molecular target: Cytochrome P450 2D6 (Homo sapiens, UniProt P10635); assay: Inhibition of CYP2D6 (unknown origin); assay type: ADME
[17] = Apparent permeability in human Caco2 cells; assay type: ADME, cell-based; conditions: Caco-2
[18] = Clearance in iv dosed monkey relative to hepatic blood flow; assay type: ADME, organism-based, Macaca mulatta; conditions: rhesus monkey, in vivo
[19] = Clearance in rat hepatocytes relative to hepatic blood flow; assay type: ADME, cell-based, Hepatocyte; conditions: read-out: CLH
[20] = Clearance in human hepatocytes relative to hepatic blood flow; assay type: ADME, cell-based, Hepatocyte; conditions: read-out: CLH
[21] = Inhibition of HIV NL4.3 integrase T124/T125 double mutant infected in PBMC assessed as reduction in viral replication by p24 ELISA; conditions: Human immunodeficiency virus 1, NL4.3
[22] = molecular target: T1, Cytochrome P450 1A2 (Homo sapiens, UniProt P05177); assay: Inhibition of CYP1A2 (unknown origin); assay type: ADME
T1 sequence (P05177 whole entry): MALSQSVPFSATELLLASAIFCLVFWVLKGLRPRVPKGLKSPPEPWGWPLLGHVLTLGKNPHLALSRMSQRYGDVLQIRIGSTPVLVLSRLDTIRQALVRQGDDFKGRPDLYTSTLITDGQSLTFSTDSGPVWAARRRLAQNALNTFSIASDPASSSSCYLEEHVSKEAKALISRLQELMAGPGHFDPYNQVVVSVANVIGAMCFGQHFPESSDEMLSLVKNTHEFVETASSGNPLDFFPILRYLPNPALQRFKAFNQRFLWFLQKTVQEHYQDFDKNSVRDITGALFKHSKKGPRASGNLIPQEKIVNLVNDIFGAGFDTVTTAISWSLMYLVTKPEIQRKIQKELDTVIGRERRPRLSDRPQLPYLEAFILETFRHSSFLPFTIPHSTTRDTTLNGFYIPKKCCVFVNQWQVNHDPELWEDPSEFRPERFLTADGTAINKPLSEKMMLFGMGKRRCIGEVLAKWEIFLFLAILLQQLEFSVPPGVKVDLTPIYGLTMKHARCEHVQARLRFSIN

[23] = molecular target: Cytochrome P450 3A4 (Homo sapiens, UniProt P08684); assay: Inhibition of CYP3A4 (unknown origin); assay type: ADME
[24] = Inhibition of HIV NL4.3 integrase T124/A125 double mutant infected in PBMC assessed as reduction in viral replication by p24 ELISA; conditions: Human immunodeficiency virus 1, NL4.3
[25] = Clearance in iv dosed dog relative to hepatic blood flow; assay type: ADME, organism-based, Canis lupus familiaris; conditions: in vivo
[26] = Inhibition of HIV NL4.3 integrase N124/A125 double mutant infected in PBMC assessed as reduction in viral replication by p24 ELISA; conditions: Human immunodeficiency virus 1, NL4.3
[27] = Inhibition of HIV NL4.3 integrase N124/T125 double mutant infected in PBMC assessed as reduction in viral replication by p24 ELISA; conditions: Human immunodeficiency virus 1, NL4.3
[28] = Half life in rat; assay type: ADME; conditions: in vivo
[29] = Inhibition of HIV NL4.3 integrase A124/A125 double mutant infected in PBMC assessed as reduction in viral replication by p24 ELISA; conditions: Human immunodeficiency virus 1, NL4.3

Sequence of Cytochrome P450 2C19 (P33261 whole entry): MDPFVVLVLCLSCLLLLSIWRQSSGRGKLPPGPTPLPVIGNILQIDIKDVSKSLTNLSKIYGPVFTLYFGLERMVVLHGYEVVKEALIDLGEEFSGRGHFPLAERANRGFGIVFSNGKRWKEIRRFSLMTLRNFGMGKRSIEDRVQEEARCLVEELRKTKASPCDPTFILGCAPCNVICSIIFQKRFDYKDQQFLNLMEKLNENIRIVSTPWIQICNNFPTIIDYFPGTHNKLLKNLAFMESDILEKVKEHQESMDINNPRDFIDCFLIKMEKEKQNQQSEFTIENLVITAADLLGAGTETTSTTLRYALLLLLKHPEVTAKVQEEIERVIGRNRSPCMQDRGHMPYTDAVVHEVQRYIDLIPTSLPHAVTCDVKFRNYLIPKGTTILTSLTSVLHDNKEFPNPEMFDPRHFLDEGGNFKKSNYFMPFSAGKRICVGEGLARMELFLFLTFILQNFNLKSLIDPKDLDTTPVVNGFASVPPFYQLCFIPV
Sequence of Cytochrome P450 3A4 (P08684 whole entry): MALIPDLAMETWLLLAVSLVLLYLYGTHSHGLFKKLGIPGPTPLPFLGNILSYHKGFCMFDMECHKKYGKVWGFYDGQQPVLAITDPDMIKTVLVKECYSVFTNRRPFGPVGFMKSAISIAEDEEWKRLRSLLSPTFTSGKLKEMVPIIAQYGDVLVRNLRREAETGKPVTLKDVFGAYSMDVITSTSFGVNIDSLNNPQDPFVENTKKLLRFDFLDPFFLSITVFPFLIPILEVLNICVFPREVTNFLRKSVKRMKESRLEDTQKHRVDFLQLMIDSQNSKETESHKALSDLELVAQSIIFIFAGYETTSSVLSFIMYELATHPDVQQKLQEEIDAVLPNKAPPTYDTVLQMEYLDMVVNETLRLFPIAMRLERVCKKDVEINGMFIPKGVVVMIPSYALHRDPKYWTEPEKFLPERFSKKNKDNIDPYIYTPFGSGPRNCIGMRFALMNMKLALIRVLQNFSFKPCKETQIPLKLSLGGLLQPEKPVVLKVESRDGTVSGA
Sequence of Cytochrome P450 2C9 (P11712 whole entry): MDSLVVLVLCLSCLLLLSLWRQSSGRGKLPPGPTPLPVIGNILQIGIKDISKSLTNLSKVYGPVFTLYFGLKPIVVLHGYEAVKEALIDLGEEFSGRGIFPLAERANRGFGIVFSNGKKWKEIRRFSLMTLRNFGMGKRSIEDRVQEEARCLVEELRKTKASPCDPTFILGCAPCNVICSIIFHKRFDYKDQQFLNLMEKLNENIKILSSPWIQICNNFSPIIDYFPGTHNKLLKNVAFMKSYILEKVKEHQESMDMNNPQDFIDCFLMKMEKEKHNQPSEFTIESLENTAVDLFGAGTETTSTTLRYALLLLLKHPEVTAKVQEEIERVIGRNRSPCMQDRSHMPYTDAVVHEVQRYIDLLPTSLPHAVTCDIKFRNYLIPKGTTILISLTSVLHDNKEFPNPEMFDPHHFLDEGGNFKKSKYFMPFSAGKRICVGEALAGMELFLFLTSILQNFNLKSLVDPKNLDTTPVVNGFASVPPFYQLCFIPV
Sequence of Cytochrome P450 2D6 (P10635 whole entry): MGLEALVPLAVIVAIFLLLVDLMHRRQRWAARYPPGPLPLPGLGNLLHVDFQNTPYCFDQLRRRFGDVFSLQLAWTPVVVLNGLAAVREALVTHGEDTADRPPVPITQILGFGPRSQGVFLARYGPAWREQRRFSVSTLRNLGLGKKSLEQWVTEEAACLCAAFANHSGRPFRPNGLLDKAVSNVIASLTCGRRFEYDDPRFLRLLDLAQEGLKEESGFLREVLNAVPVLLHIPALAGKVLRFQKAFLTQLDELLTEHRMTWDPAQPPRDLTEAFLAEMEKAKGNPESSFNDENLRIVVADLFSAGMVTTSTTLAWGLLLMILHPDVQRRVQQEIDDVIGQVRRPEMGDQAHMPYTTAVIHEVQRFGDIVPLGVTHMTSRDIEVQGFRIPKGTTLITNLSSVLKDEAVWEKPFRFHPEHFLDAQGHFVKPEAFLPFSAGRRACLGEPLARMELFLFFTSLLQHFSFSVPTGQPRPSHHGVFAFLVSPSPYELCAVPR

Cc1nc(C(=O)Nc2ccccc2)c(C)c(-c2ccc(Cl)cc2)c1[C@H](OC(C)(C)C)C(=O)O
EC50 [1]: 0.67 µM
EC50 [2]: 0.012 µM

Cc1nc(-c2cn(-c3ccccc3)nn2)c(C)c(-c2ccc3c(c2)CCCO3)c1[C@H](OC(C)(C)C)C(=O)O
EC50 [1]: 0.31 µM
Ratio EC50 [3]: 17
EC50 [2]: 0.0047 µM

Cc1noc(C)c1-c1ccc(-c2nc(C)c([C@H](OC(C)(C)C)C(=O)O)c(-c3ccc(Cl)cc3)c2C)cc1
EC50 [1]: 0.81 µM
CL [4]: 0.6%
EC50 [2]: 0.0077 µM

Cc1nc(C(=O)NC(C)(C)C2CC2)c(C)c(-c2ccc(Cl)cc2)c1[C@H](OC(C)(C)C)C(=O)O
EC50 [1]: 0.56 µM
Ratio EC50 [3]: 1.5
half-life [5]: 3.63 h
EC50 [2]: 0.0044 µM

Cc1nc(-c2nc3ccc(F)cc3n2C)c(C)c(-c2ccc3c(c2C)N(C)CCO3)c1[C@H](OC(C)(C)C)C(=O)O
EC50 [1]: 0.12 µM
Ratio EC50 [3]: 1.4
half-life [5]: 1.58 h
EC50 [2]: 0.003 µM

Cc1nc(NC(=O)c2ccccc2OC(F)(F)F)c(C)c(-c2ccc3c(c2)N(C)CCO3)c1[C@H](OC(C)(C)C)C(=O)O
EC50 [1]: 0.22 µM
Ratio EC50 [3]: 3.4
half-life [5]: > 5 h
EC50 [2]: 0.0074 µM

Cc1nc(C(=O)N[C@H]2CC[C@H](C)CC2)c(C)c(-c2ccc3c(c2)CCCO3)c1[C@H](OC(C)(C)C)C(=O)O
EC50 [1]: 0.22 µM
Ratio EC50 [3]: 4.1
half-life [5]: 0.817 h
EC50 [2]: 0.0042 µM

Cc1nc(C(=O)N[C@H]2CC[C@H](C)CC2)c(C)c(-c2ccc3c(c2C)N(C)CCO3)c1[C@H](OC(C)(C)C)C(=O)O
solubility [6]: 0.93 mg/mL (≈ 1730 µM)
IC50 [7]: > 30 µM
EC50 [1]: 0.17 µM
hepatic extraction ratio [8]: 0.31
Drug excretion [9]: 20%
EC50 [10]: 0.0006 µM
half-life [11]: 1.3 h
IC50 [12]: > 30 µM
Ratio EC50 [3]: 2.9
hepatic extraction ratio [13]: 0.31
Vd [14]: 1.4 L/kg
CL [15]: 23%
IC50 [16]: > 30 µM
Papp [17]: 398 nm/s
CL [18]: 30%
hepatic extraction ratio [19]: 0.07
hepatic extraction ratio [20]: 0.17
EC50 [21]: 0.0005 µM
IC50 [22]: > 30 µM
IC50 [23]: > 30 µM
EC50 [24]: 0.0004 µM
half-life [5]: > 5 h
EC50 [2]: 0.0025 µM
CL [25]: 10%
EC50 [26]: 0.042 µM
EC50 [27]: 0.027 µM
half-life [28]: 1.3 h
EC50 [29]: 0.0009 µM

Cc1nc(C(=O)NC2CCN(C)CC2)c(C)c(-c2ccc(Cl)cc2)c1[C@H](OC(C)(C)C)C(=O)O
EC50 [2]: 2.2 µM

Cc1cccc(NC(=O)c2nc(C)c([C@H](OC(C)(C)C)C(=O)O)c(-c3ccc(Cl)cc3)c2C)c1
half-life [5]: > 5 h
EC50 [2]: 0.0037 µM

Cc1nc(NC(=O)c2ccccc2OC(F)(F)F)c(C)c(-c2ccc3c(c2C)N(C)CCO3)c1[C@H](OC(C)(C)C)C(=O)O
Ratio EC50 [3]: 2.6
half-life [5]: > 5 h
EC50 [2]: 0.0047 µM

Cc1ccc2nc(-c3nc(C)c([C@H](OC(C)(C)C)C(=O)O)c(-c4ccc5c(c4C)N(C)CCO5)c3C)n(C)c2c1
EC50 [1]: 0.091 µM
Ratio EC50 [3]: 3.9
half-life [5]: 1.58 h
EC50 [2]: 0.003 µM

Cc1nc(C(=O)N[C@H]2CC[C@H](C)CC2)c(C)c(-c2ccc3c(c2)NCCO3)c1[C@H](OC(C)(C)C)C(=O)O
EC50 [1]: 0.28 µM
Ratio EC50 [3]: 2.1
half-life [5]: > 5 h
EC50 [2]: 0.027 µM
